According to patent US9474730B2, “Methods and compositions for use with K-ras mediated disorders” (Board of Regents of the University of Texas System, priority 2012, dated 2016):

Columns and labels:
[1] = biological target: T1, GFP-CTH (mGFP-tagged C-terminal region of H-ras) in MDCK cells (Homo sapiens, UniProt P01112); assay: High throughput cell-based screen: plasma membrane localization of GFP-CTH; design: species or system canine; settings: positive control
T1 construct: hypervariable region of H-ras (amino acids 166-189) cloned onto the carboxy terminus of monomeric GFP; expressed in transfected cells
T1 sequence (P01112 166-189 limits assumed): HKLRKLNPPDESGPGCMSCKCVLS

[2] = biological target: T2, GFP-K-rasG12V in MDCK or BHK cells (Homo sapiens, UniProt P01116, G12V); assay: Cellular fractionation (P100/S100) with quantitative Western blotting, GFP-K-rasG12V; type: cell-based, canine (MDCK), hamster (BHK); settings: 48 hours
T2 construct: MDCK and BHK cells expressing GFP-tagged full length constitutively active Ras (G12V) proteins; expressed in transfected cells
Method: Following treatment, membrane (P100) and soluble (S100) protein fractions were prepared and analyzed by quantitative Western blotting.
(§1) Preparation of whole-cell lysates: cells were lysed in Buffer B (50 mM Tris [pH 7.5], 75 mM NaCl, 25 mM NaF, 5 mM MgCl2, 5 mM EGTA, 1 mM dithiothreitol, 100 μM NaVO4, 1% Nonidet P-40 plus protease inhibitors). Cellular fractionation: cells were incubated in Buffer A (10 mm Tris-HCl, pH 7.5, 25 mm NaF, 5 mm MgCl2, 1 mm EGTA, 1 mm dithiothreitol, 100 μm NaVO4 plus protease inhibitors) for 30 minutes on ice and lysed by passing through a 27 G needle 30 times. The post nuclear supernatant was centrifuged at 100,000 g for 30 minutes and the membrane pellet was resuspended in Buffer A containing 1% Triton X-100.
(§2) SDS-PAGE and Western blotting with the specified antibody were performed using 20 μg of each whole cell lysate/P100 fraction and volumes of S100 equal to that of the corresponding P100. Signal was detected by enhanced chemiluminescence (SuperSignal; Pierce, Thermo Fisher Scientific, Rockford, Ill.) and imaged by FluorChemQ (Alpha Inotech, San Leandro, Calif., USA). Quantification of intensities was performed using FluorChemQ software.

[3] = tested on: BHK cells stably expressing K-rasG12V; assay: Signaling downstream of oncogenic K-ras by quantitative Western blotting; type: cell-based, hamster; settings: other Ca2+ channel blockers and ionomycin
Method: FIG. 5: Illustrates that fendiline HCl inhibits Raf kinase activity and signaling downstream of oncogenic K-ras: BHK cells stably expressing K-rasG12V were treated with vehicle or fendiline HCl (6 μg/mL) for 48 h. (A) Raf kinase activity in membrane fractions prepared from the cells was measured in a coupled […] kinase assay. Data is shown as mean±SEM from 3 independent experiments. (B) ppMEK and ppERK in soluble protein fraction and pAkt levels in membrane protein fraction were measured by quantitative Western blotting. Actin and Akt were used as loading controls for soluble and membrane fractions, respectively. A representative blots are shown. Data is shown as mean±SEM from 3-4 independent experiments. Statistical significance was calculated using one way ANOVA and Student's T-test. (*=p<0.05), wherein experimentation was performed in accordance with principles described herein;
as §1
Quantification of intensities was performed using FluorChemQ software.

[4] = tested on: MAPK activation (pERK) in Hec1A cells; settings: 48 h
Method: as §2

[5] = biological target: T3, GFP-CTK (mGFP-tagged C-terminal region of K-ras) in MDCK cells (Homo sapiens, UniProt P01116); assay: High throughput cell-based screen: plasma membrane localization of GFP-CTK; design: species or system canine; settings: positive control, 250 ng/mL UCN-01, MDCK
T3 construct: hypervariable region of K-ras (amino acids 166-188) cloned onto the carboxy terminus of GFP; expressed in transfected cells
Method: FIG. 1: Illustrates results of a high throughput cell-based screening of chemical libraries: Madin-Darby Canine Kidney epithelial cells (MDCK) expressing monomeric green fluorescent protein (mGFP)-tagged C-terminal region of K- or H-ras (GFP-CTK and GFP-CTH) were seeded in 96 well plates and treated with drug libraries for 48 h. Cells were then fixed with paraformaldehyde and imaged by BD Pathway Imager in confocal mode; shown are representative images of cells treated with vehicle, […], and 10 μM FTI-276; wherein experimentation was performed in accordance with principles described herein;
In accordance with some embodiments described herein, wild type MDCK cells or MDCK cells expressing monomeric green fluorescent protein (mGFP)-tagged C-terminal region of K-ras or H-ras (GFP-CTK and GFP-CTH respectively) were seeded in triplicate in 96 well plates (Matrical) at a density of 30,000 cells/well and incubated for 24 h at 37° C. Compounds were individually added to test cells at a concentration of 4 μg/mL (concentration of DMSO 1%) and incubated for a further 48 h.
Cells were then fixed with 4% paraformaldehyde and stored in PBS at 4° C. until imaged. Plates were imaged using a BD Pathway High-Throughput Bioimager. Images were acquired by a 3×3 montage with 20× objective lens using GFP-confocal mode. […]

[6] = tested on: tumor cell lines expressing oncogenic mutant or wild-type K-Ras; assay: Proliferation assay (MTS), panel of pancreatic, endometrial, lung and colon tumor cell lines; type: cell-based; settings: 72 h, various concentrations
Method: (§3) (A) A panel of wild-type (WT) or oncogenic mutant (Mut) K-Ras-expressing tumor cells were seeded in 96-well plates and treated for 72 h with vehicle (DMSO) or various concentrations of fendiline. […] The graphs show relative mean numbers of viable cells±SEMs from 3 independent experiments. Cell lines expressing oncogenic mutant K-Ras are shown in red, and cell lines that express wild-type K-Ras are shown in black. NCI H1299 cells (shown in blue) express wild-type K-Ras but mutant N-Ras. CaCO-2 cells (shown in green) overexpress wild-type K-Ras. (B) K-Ras levels in whole-cell lysates of SNU-C1, CaCO-2, and SK-CO-1 cells were quantified by Western blotting. The graphs show means±SEMs for 3 isolates of each cell line (indicated as 1, 2, and 3). K-Ras expression was normalized to the SNU-C1 sample.
(§4) After 24 h, fresh growth medium supplemented with 1% vehicle (DMSO), various concentrations of fendiline, or U0126 was added and cells were grown for 48 h or 72 h.

[7] = tested on: CaCO-2 colon cancer cell line; assay: Proliferation assay (MTS), CaCO-2; type: cell-based; settings: 72 h; wild type K-Ras, overexpressed
Method: as §3, §4

SNU-C1 cells = assay: Proliferation assay (MTS), SNU-C1; type: cell-based; settings: 72 h; wild type K-Ras
Method: as §3, §4

[8] = tested on: K-Ras-transformed Hec1A cells; assay: Proliferation assay (MTS), Hec-1a, fendiline versus U0126; settings: 48 h, single dose of fendiline, U0126 renewed every 24 h
Method: The number of viable cells was quantified (absorbance at 490 nm) using the CellTiter 96 AQueous One Solution cell proliferation assay kit (Promega). […] Cell numbers were normalized to the corresponding vehicle-treated control. Statistical significance was calculated using Student's t test (*, P<0.05). […] Cell numbers were quantified using the CellTiter 96 AQueous One Solution cell proliferation assay (MTS) (Promega), according to the manufacturer's protocol.

**Q.** With `CSCC[C@H](NC(=O)c1ccc(NC[C@@H](N)CS)cc1-c1ccccc1)C(=O)O` [FTI-276] as the molecule, how does the “localization of GFP-CTH” value ([1]; 10 μM FTI-276, MDCK) read?
**A.** causes cytoplasmic localization of GFP-CTH

**Q.** For `C[C@H](CCC(=O)O)C[C@H](C)C[C@H](C)C(=O)/C=C(\O)[C@H](C)C[C@H](C)C/C=C/[C@@H](C)[C@@H](O)[C@@H](C)[C@@H](O)C[C@@H]1CC[C@@](C)([C@H]2CC[C@@](C)([C@@H](C)O)O2)O1` [Ionomycin, ionomycin], which “localization of Ras proteins (fractionation)” value ([2]; ionomycin 1 μM, GFP-K-rasG12V or GFP-H-rasG12V) is on record?
**A.** did not significantly alter the localization of Ras proteins

**Q.** And the “effect on Ras signaling” value [3]?
**A.** None of the other Ca^2+ channel blockers tested or ionomycin had any effect on Ras signaling

**Q.** `N#CC(=C(/N)Sc1ccccc1N)/C(C#N)=C(\N)Sc1ccccc1N` [U0126] was tested. Which “inhibition of MAPK activation (pERK levels), relative potency” value [4] did it give?
**A.** much more potent than fendiline

**Q.** Which results are given for `CN[C@@H]1C[C@H]2O[C@@](C)([C@@H]1OC)n1c3ccccc3c3c4c(c5c6ccccc6n2c5c31)C(=O)N[C@@H]4O` [UCN-01]?
**A.** localization of GFP-CTK [5]: causes mislocalization of both GFP-CTK and GFP-CTH; localization of GFP-CTH ([1]; 250 ng/mL UCN-01, MDCK): causes mislocalization of both GFP-CTK and GFP-CTH

**Q.** Which “localization of GFP-K-rasG12V (fractionation)” value ([2]; other Ca2+ channel blockers, 10 μM) does the source give for `COc1ccc([C@@H]2Sc3ccccc3N(CCN(C)C)C(=O)[C@@H]2OC(C)=O)cc1` [diltiazem] here?
**A.** None of the other Ca^2+ channel blockers altered the localization of GFP-K-rasG12V

**Q.** What does the source list for `CC(NCCC(c1ccccc1)c1ccccc1)c1ccccc1` (centres unmarked) [fendiline, 3,3-diphenyl-N-(1-phenylethyl)propan-1-amine]?
**A.** inhibition of proliferation, oncogenic mutant versus wild-type K-Ras tumor cells [6]: more potently inhibited the proliferation of tumor cells that express oncogenic mutant K-Ras than tumor cells that express wild-type K-Ras; inhibition of proliferation of CaCO-2 [7]: potently inhibited; inhibition of proliferation of SNU-C1 (SNU-C1 cells): unresponsive; inhibition of cell proliferation, relative potency [8]: significantly more potent than U0126
